Test results reported in patent US20240101576A1, “HETEROCYCLIC INHIBITORS OF EGFR AND/OR HER2, FOR USE IN THE TREATMENT OF CANCER” (Scorpion Therapeutics, Inc., priority 2020, published 2024).

Tests used:
Type in all cases: cell-based
EGFR WT (Ba/F3 cells) = target: T1, EGFR WT (Ba/F3 cells) (Homo sapiens, UniProt P00533); experiment: Inhibitor activity on EGFR-dependent cell growth (CellTiter-Glo, 72 h), Ba/F3 EGFR WT; settings: read-out: BaF3 WT IC50
T1 construct: expressed in transfected cells; host or cells: Ba/F3 (murine pro-B cells), retroviral transduction, puromycin selection, maintained with EGF
Procedure, shortened: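 This growth assay used Ba/F3 cells that depend on wild-type EGFR and are kept in EGF without IL3. Compounds were made up as 10 mM DMSO stocks and diluted 3-fold over 10 points. 120 nL went onto 600 cells/well. After 72 hours, 40 μL CellTiter-Glo was added and luminescence read on EnVision after 30 min.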

[1] = target: T2, EGFR exon 20 ASV Ins V769_D770 (Ba/F3 cells) (Homo sapiens, UniProt P00533, INS769ASV); experiment: Inhibitor activity on EGFR-dependent cell growth (CellTiter-Glo, 72 h), Ba/F3 EGFR exon 20 ASV Ins; settings: read-out: BaF3 ASV IC50
T2 construct: expressed in transfected cells; host or cells: Ba/F3 (murine pro-B cells), retroviral transduction, puromycin selection, IL3-independent pool
Procedure, shortened: (§1)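 IC50s derive from a sigmoidal dose–response fit of CellTiter-Glo signal. The signal was normalised between […]-treated cells and cell-free medium. Ba/F3 mutant-EGFR cells, seeded at 400–800/well depending on the line, had 72 h of exposure to a 10-point, 3-fold compound series.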

[2] = target: T3, EGFR exon 20 FQEA Ins A763_V764 (Ba/F3 cells) (Homo sapiens, UniProt P00533, INS763FQEA); experiment: Inhibitor activity on EGFR-dependent cell growth (CellTiter-Glo, 72 h), Ba/F3 EGFR exon 20 FQEA Ins; settings: read-out: BaF3 FQEA IC50
T3 construct: expressed in transfected cells; host or cells: Ba/F3 (murine pro-B cells), retroviral transduction, puromycin selection, IL3-independent pool
Procedure, shortened: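 72 h proliferation, Ba/F3 EGFR mutants (no IL3, puromycin-selected pools, EGFR confirmed by Western blot). Seeding of 400 L858R, 600 L858R/C797S and 800 exon 19del/FQEA cells per well. CellTiter-Glo used; controls were […] (high) and medium alone (low).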

[3] = target: T4, EGFR exon 20 SVD Ins D770_N771 (Ba/F3 cells) (Homo sapiens, UniProt P00533, INS770SVD); experiment: Inhibitor activity on EGFR-dependent cell growth (CellTiter-Glo, 72 h), Ba/F3 EGFR exon 20 SVD Ins; settings: read-out: BaF3 SVD IC50
T4 construct: expressed in transfected cells; host or cells: Ba/F3 (murine pro-B cells), retroviral transduction, puromycin selection, IL3-independent pool
Procedure, shortened: as §1

[4] = target: T5, EGFR exon 20 NPG Ins D770_N771 (Ba/F3 cells) (Homo sapiens, UniProt P00533, INS770NPG); experiment: Inhibitor activity on EGFR-dependent cell growth (CellTiter-Glo, 72 h), Ba/F3 EGFR exon 20 NPG Ins; settings: read-out: BaF3 NPG IC50
T5 construct: expressed in transfected cells; host or cells: Ba/F3 (murine pro-B cells), retroviral transduction, puromycin selection, IL3-independent pool
Source text: Example A. Inhibitor Activity on EGFR-Dependent Cell Growth
Cell lines are generated by transducing Ba/F3 cells with retroviruses containing vectors with EGFR WT, EGFR L858R, EGFR exon 19del, EGFR L858R/C797S, EGFR exon 20 NPG Ins D770_N771, EGFR exon 20 ASV Ins V769_D770, EGFR exon 20 SVD Ins D770_N771, or EGFR exon 20 FQEA Ins A763_V764 genes and a puromycin selection marker. Transduced cells are selected with puromycin for 7 days and are then be transferred into culture media without Interleukin 3 (IL3). EGFR WT cells are maintained with supplemental EGF. Surviving cells are confirmed to express EGFR by Western blot and maintained as a pool. The IC50 date were included in Table 6 and Table 7.
1.1 Cells are harvested from flask into cell culture medium and the cell number counted.
1.2 Cells are diluted with culture medium to the desired density and 40 μL of cell suspension is added into each well of 384-well cell culture plate and the seeding density is 800 (FQEA, exon 19del), 600 (WT, NPG, L858R/C797S), or 400 (ASV, SVD, L858R) cells/well.
2 Compound Preparation and Treatment
2.1 Test compounds are dissolved to 10 mM in a DMSO stock solution. 45 μL of stock solution is transferred to a 384 polypropylene plate (pp-plate). Perform 3-fold, 10-point dilution via transferring 15 μL compound into 30 μL DMSO using a TECAN (EVO200) liquid handler.
2.2 Spin plates at room temperature at 1,000 RPM for 1 minute.
2.3 Transfer 120 nL of diluted compound from compound source plate into the cell plate.
2.4 After compound treatment for 72 hours, perform CTG detection for compound treatment plates as described in “Detection” section.
3.1 Plates are removed from incubators and equilibrated at room temperature for 15 minutes.
3.2 Thaw the CellTiter Glo reagents and allow to equilibrate to room temperature before the experiment.
3.3 Add 40 μL of CellTiter-Glo reagent into each well (at 1:1 to culture medium). Then place the plates at room temperature for 30 min followed by reading on EnVision.
4.1 Inhibition activity is calculated following the formula below:
% Inhibition=100×(LumHC−LumSample)/(LumHC−LumLC) • where HC is obtained from cells treated with 0.1% DMSO only; and LC is obtained from culture medium only.
4.2 2. Calculate the IC50 by fitting the Curve using Xlfit (v5.3.1.3), equation 201.
Y=Bottom+(Top−Bottom)/(1+10^((Log IC50−X)*HillSlope))

T5 sequence (P00533 with tags, fused parts or gaps INS770NPG): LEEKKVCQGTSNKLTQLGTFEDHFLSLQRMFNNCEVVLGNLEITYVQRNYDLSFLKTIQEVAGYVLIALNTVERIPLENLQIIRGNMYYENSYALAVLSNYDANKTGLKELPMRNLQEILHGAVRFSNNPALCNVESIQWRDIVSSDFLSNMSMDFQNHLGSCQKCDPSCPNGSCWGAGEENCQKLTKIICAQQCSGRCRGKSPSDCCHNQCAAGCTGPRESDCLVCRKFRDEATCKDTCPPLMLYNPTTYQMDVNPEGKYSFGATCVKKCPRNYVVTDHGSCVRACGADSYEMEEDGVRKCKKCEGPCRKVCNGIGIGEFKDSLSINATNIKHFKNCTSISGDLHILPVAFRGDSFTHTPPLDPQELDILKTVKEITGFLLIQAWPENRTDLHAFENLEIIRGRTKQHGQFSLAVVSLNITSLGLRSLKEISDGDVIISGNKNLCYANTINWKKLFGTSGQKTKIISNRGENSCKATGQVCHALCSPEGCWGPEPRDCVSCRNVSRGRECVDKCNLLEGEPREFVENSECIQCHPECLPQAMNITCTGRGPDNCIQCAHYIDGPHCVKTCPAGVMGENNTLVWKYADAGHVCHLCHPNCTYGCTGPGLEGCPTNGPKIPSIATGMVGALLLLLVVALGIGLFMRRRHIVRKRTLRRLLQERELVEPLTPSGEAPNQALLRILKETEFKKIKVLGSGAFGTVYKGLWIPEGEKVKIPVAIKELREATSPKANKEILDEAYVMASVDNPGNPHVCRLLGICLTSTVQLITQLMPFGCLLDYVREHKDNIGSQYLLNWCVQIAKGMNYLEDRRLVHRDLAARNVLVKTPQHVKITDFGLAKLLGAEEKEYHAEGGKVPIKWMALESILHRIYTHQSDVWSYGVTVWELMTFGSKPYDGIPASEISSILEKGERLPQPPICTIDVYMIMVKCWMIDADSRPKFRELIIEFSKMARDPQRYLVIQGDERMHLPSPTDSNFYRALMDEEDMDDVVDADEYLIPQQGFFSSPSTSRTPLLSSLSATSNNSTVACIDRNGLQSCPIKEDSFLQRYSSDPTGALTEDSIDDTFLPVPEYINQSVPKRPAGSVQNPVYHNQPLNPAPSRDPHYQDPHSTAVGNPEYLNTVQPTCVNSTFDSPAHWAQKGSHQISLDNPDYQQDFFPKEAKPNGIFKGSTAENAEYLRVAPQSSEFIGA
T1 sequence (P00533 25-1210): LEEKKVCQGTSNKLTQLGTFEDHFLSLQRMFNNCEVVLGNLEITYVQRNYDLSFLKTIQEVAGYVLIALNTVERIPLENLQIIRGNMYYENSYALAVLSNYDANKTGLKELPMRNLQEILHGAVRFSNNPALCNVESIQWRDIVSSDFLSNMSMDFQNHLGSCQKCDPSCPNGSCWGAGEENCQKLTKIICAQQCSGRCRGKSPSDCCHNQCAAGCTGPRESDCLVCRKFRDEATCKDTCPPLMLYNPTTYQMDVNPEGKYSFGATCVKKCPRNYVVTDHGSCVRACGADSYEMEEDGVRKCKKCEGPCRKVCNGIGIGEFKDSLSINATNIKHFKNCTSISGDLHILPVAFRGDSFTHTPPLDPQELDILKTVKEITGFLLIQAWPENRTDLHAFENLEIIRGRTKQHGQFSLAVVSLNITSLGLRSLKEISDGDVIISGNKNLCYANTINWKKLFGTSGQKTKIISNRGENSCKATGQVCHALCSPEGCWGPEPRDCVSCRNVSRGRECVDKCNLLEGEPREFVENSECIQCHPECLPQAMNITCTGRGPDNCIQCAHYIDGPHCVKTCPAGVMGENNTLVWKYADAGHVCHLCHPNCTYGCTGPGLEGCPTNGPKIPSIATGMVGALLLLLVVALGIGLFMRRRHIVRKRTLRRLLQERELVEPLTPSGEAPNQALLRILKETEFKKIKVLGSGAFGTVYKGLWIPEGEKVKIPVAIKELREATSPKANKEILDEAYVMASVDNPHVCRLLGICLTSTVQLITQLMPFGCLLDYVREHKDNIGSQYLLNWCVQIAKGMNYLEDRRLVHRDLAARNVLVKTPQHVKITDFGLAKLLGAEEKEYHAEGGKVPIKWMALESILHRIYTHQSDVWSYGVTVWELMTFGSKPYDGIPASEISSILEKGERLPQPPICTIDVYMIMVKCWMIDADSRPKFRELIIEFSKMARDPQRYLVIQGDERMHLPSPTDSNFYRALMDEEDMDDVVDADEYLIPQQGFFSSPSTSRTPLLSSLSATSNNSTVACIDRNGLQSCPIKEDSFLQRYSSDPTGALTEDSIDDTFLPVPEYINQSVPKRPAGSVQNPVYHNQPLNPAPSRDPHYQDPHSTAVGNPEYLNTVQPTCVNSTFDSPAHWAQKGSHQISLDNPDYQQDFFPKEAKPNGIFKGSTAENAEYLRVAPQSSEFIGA
T2 sequence (P00533 with tags, fused parts or gaps INS769ASV): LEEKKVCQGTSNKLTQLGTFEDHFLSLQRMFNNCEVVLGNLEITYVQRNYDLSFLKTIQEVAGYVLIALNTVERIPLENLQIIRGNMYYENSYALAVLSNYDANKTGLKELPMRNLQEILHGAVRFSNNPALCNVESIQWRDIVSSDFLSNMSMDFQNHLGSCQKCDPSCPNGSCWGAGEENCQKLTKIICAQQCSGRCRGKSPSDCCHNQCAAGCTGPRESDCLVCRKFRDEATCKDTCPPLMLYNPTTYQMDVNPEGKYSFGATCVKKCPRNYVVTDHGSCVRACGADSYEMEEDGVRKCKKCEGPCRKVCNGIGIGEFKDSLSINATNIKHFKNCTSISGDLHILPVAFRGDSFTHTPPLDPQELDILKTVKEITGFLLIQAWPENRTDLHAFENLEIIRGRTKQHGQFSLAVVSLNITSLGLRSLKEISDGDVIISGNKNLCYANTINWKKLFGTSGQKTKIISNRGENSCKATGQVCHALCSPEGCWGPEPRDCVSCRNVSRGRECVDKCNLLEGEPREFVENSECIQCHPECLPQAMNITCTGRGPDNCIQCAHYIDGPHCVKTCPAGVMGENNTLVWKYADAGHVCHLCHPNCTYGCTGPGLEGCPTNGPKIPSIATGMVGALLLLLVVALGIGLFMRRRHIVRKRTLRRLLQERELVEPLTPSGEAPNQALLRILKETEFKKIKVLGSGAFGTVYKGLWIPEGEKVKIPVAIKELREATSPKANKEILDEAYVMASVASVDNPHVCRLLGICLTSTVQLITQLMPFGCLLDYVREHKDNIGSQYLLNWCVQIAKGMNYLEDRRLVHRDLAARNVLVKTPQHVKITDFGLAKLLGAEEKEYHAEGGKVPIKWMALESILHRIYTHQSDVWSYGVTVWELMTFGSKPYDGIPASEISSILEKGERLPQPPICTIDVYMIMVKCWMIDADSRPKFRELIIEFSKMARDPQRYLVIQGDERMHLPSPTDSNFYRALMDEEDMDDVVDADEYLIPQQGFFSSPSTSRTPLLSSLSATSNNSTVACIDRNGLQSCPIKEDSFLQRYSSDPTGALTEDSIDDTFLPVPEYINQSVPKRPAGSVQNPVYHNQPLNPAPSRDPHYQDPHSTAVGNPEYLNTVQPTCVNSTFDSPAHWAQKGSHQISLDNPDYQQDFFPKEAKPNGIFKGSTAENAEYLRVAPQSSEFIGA
T3 sequence (P00533 with tags, fused parts or gaps INS763FQEA): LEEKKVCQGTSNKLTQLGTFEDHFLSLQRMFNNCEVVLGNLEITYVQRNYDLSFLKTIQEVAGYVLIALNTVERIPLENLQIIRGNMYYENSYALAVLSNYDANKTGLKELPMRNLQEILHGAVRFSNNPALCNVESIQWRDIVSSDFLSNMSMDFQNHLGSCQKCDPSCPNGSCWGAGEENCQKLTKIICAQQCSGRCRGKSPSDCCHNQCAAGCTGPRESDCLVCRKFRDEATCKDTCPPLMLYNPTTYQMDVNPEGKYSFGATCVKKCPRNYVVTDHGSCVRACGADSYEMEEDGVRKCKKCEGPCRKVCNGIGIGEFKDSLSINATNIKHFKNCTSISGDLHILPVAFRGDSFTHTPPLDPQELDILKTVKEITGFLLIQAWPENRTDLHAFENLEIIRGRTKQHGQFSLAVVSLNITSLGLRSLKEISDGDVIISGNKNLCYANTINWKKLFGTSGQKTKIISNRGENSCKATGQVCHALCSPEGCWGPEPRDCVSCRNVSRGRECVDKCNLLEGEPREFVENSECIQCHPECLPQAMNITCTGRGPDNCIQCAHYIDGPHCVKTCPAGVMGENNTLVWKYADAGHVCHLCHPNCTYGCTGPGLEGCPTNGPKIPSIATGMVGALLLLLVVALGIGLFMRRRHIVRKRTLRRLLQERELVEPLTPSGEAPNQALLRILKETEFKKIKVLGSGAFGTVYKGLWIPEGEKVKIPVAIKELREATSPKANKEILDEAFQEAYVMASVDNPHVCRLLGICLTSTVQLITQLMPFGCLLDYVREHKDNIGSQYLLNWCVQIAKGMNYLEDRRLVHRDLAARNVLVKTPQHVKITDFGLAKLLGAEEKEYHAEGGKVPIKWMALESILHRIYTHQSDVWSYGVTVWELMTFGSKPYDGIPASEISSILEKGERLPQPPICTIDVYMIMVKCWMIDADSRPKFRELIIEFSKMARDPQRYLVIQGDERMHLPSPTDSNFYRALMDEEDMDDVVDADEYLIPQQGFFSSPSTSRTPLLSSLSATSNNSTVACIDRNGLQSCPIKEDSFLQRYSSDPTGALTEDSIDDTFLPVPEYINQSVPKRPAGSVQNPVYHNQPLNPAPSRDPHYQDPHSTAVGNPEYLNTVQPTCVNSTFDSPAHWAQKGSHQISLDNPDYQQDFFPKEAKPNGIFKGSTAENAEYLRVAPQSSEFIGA

IC50 (EGFR WT (Ba/F3 cells))	IC50 [1]	IC50 [2]	IC50 [3]	IC50 [4]	Compound
> 1000 nM	< 100 nM	100 to 1000 nM	< 100 nM	< 100 nM	COc1c(Cl)cccc1Nc1c(-c2ccncc2F)[nH]c2c1C(=O)NC[C@@H]2CC(=O)N(C)C [Compound 488]
100 to 1000 nM	< 100 nM	< 100 nM	< 100 nM	< 100 nM	COc1c(Cl)cccc1Nc1c(-c2ccnc3ccc(OC[C@@H]4CCO4)nc23)[nH]c2c1C(=O)NCC2 [compound 735, 3-[(3-chloro-2-methoxyphenyl)amino]-2-[6-[(2S)-oxetan-2-ylmethoxy]-1,5-naphthyridin-4-yl]-1H,5H,6H, 7H-pyrrolo[3,2-c]pyridin-4-one]
> 1000 nM	100 to 1000 nM	> 1000 nM	> 1000 nM	100 to 1000 nM	COc1c(Cl)cccc1Nc1c(-c2ccnc(NC[C@@H]3CCO3)n2)[nH]c2c1C(=O)NCC2 [compound 719]
< 100 nM	< 100 nM	< 100 nM	< 100 nM	< 100 nM	COc1c(Cl)cccc1Nc1c(-c2ccnc(Nc3ccn(C)n3)n2)[nH]c2c1C(=O)NCC2 [compound 509, 3-[(3-chloro-2-methoxyphenyl)amino]-2-{2-[(1-methylpyrazol-3-yl)amino]pyrimidin-4-yl}-1H,5H,6H,7H-pyrrolo[3,2-c]pyridin-4-one]
100 to 1000 nM	100 to 1000 nM	100 to 1000 nM	100 to 1000 nM	100 to 1000 nM	COc1c(Cl)cccc1Nc1c(-c2ccnc3ccc(OCC4(C(F)(F)F)CC4)nc23)[nH]c2c1C(=O)NCC2 [compound 758, 3-[(3-chloro-2-methoxyphenyl)amino]-2-(6-[[1-(trifluoromethyl)cyclopropyl]methoxy]-1,5-naphthyridin-4-yl)-1H,5H,6H,7H-pyrrolo[3,2-c]pyridin-4-one]
100 to 1000 nM		< 100 nM		< 100 nM	COCC[C@@H]1CNC(=O)c2c1[nH]c(-c1ccncc1F)c2Nc1cccc(Cl)c1OC [Compound 746]
> 1000 nM	100 to 1000 nM		100 to 1000 nM	100 to 1000 nM	COc1c(Cl)cccc1Nc1c(-c2ccncc2F)[nH]c2c1C(=O)NCC2C[C@@H]1CO[C@@H](CN(C)C)CO1 (single isomer, unassigned) [Compound 563, (7R*)-3-[(3-chloro-2-methoxyphenyl)amino]-7-{[(2R,5S)-5-[(dimethylamino)methyl]-1,4-dioxan-2-yl]methyl}-2-(3-fluoropyridin-4-yl)-1H,5H,6H,7H-pyrrolo[3,2-c]pyridin-4-one]
> 1000 nM	> 1000 nM		> 1000 nM	100 to 1000 nM	COC(=O)N1CC[C@@]2(CNC(=O)c3c2[nH]c(-c2ccncc2F)c3Nc2cccc(Cl)c2OC)C1 [Compound 498, methyl (3R)-3′-[(3-chloro-2-methoxyphenyl)amino]-2′-(3-fluoropyridin-4-yl)-4′-oxo-5′,6′-dihydro-1′H-spiro[pyrrolidine-3,7′-pyrrolo[3,2-c]pyridine]-1-carboxylate]
> 1000 nM	> 1000 nM		> 1000 nM	> 1000 nM	COC(=O)N1CC2(CNC(=O)c3c2[nH]c(-c2ccncc2F)c3Nc2cccc(Cl)c2OC)C1 [Compound 490, methyl 3′-[(3-chloro-2-methoxyphenyl)amino]-2′-(3-fluoropyridin-4-yl)-4′-oxo-5′,6′-dihydro-1′H-spiro[azetidine-3,7′-pyrrolo[3,2-c]pyridine]-1-carboxylate]
> 1000 nM	> 1000 nM		> 1000 nM	> 1000 nM	CNC(=O)N1CC[C@@]2(CNC(=O)c3c2[nH]c(-c2ccncc2F)c3Nc2cccc(Cl)c2OC)C1 [Compound 499, (3R)-3′-[(3-chloro-2-methoxyphenyl)amino]-2′-(3-fluoropyridin-4-yl)-N-methyl-4′-oxo-5′,6′-dihydro-1′H-spiro[pyrrolidine-3,7′-pyrrolo[3,2-c]pyridine]-1-carboxamide]
> 1000 nM	< 100 nM		< 100 nM	< 100 nM	COc1c(Cl)cccc1Nc1c(-c2ccnc(C)n2)[nH]c2c(C[C@H]3COCCO3)c[nH]c(=O)c12 [compound 659]
100 to 1000 nM	< 100 nM		< 100 nM	< 100 nM	COc1c(F)cccc1Nc1c(-c2ccnc3cnc(N4CCN(C(=O)/C=C/CN(C)C)CC4)nc23)[nH]c2c1C(=O)NCC2 [Compound 577, 2-(2-{4-[(2E)-4-(dimethylamino)but-2-enoyl]piperazin-1-yl}pyrido[3,2-d]pyrimidin-8-yl)-3-[(3-fluoro-2-methoxyphenyl)amino]-1H,5H,6H,7H-pyrrolo[3,2-c]pyridin-4-one]
100 to 1000 nM	< 100 nM		< 100 nM	< 100 nM	C=CC(=O)N1CCC2(CC1)CNC(=O)c1c2[nH]c(-c2ccncc2F)c1Nc1cccc(Br)c1OC [Compound 561, 3′-[(3-bromo-2-methoxyphenyl)amino]-2′-(3-fluoropyridin-4-yl)-1-(prop-2-enoyl)-5′,6′-dihydro-1′H-spiro[piperidine-4,7′-pyrrolo[3,2-c]pyridin]-4′-one]
< 100 nM	< 100 nM		< 100 nM	< 100 nM	C=CC(=O)N1CCC(Oc2nc3c(-c4[nH]c5c(c4Nc4cccc(F)c4OC)C(=O)NCC5)ccnc3cc2OC)CC1 [Compound 554, 3-[(3-fluoro-2-methoxyphenyl)amino]-2-(7-methoxy-6-{[1-(prop-2-enoyl)piperidin-4-yl]oxy}-1,5-naphthyridin-4-yl)-1H,5H,6H,7H-pyrrolo[3,2-c]pyridin-4-one]
> 1000 nM	100 to 1000 nM		100 to 1000 nM	100 to 1000 nM	COc1c(Cl)cccc1Nc1c(-c2ccncc2F)[nH]c2c1C(=O)NCC21CCN(C(=O)/C=C/CN(C)C)CC1 [Compound 522, 3′-[(3-chloro-2-methoxyphenyl)amino]-1-[4-(dimethylamino)but-2-enoyl]-2′-(3-fluoropyridin-4-yl)-5′,6′-dihydro-1′H-spiro[piperidine-4,7′-pyrrolo[3,2-c]pyridin]-4′-one]
> 1000 nM	> 1000 nM		> 1000 nM	> 1000 nM	CNC(=O)N1CC[C@]2(CNC(=O)c3c2[nH]c(-c2ccncc2F)c3Nc2cccc(Cl)c2OC)C1 [Compound 500, (3S)-3′-[(3-chloro-2-methoxyphenyl)amino]-2′-(3-fluoropyridin-4-yl)-N-methyl-4′-oxo-5′,6′-dihydro-1′H-spiro[pyrrolidine-3,7′-pyrrolo[3,2-c]pyridine]-1-carboxamide]
> 1000 nM	> 1000 nM		> 1000 nM	100 to 1000 nM	C=CC(=O)N1CCC2(CC1)CNC(=O)c1c2[nH]c(-c2ccncc2F)c1Nc1ccc(Cl)c(Cl)c1 [Compound 590, 3′-[(3,4-dichlorophenyl)amino]-2′-(3-fluoropyridin-4-yl)-1-(prop-2-enoyl)-5′,6′-dihydro-1′H-spiro[piperidine-4,7′-pyrrolo[3,2-c]pyridin]-4′-one]
